These results are taken from ChEMBL document CHEMBL1134540, “ElogD(oct): a tool for lipophilicity determination in drug discovery. 2. Basic and neutral compounds” (J Med Chem, 2001).

This series in a line: Partition coefficient (logD7.4). Conditions: octanol/water, pH 7.4.
As usually defined, the logD is the decadic logarithm of the distribution of all forms, ionised or not, between an organic phase and buffer at a given pH. A high value points to higher lipophilicity. Turning to `NS(=O)(=O)c1cc(C2(O)NC(=O)c3ccccc32)ccc1Cl` (stereo unspecified) [CHLORTHALIDONE], the pH-dependent lipophilicity (logD) was 1.11.

`Clc1cccc(Cl)c1N=C1NCCN1` [CLONIDINE]: the logD amounted to 0.62.

`CC(=O)CCCCn1c(=O)c2c(ncn2C)n(C)c1=O` [PENTOXIFYLLINE] displayed a logD of 0.29.

Compound `CN1C(=O)C(O)N=C(c2ccccc2Cl)c2cc(Cl)ccc21` (stereo unspecified) [LORMETAZEPAM] returned a log distribution coefficient (logD) of 2.72.

As to `CNC(=C[N+](=O)[O-])NCCSCc1csc(CN(C)C)n1` [NIZATIDINE], the logD is -0.52.

`Brc1cnc2ccccc2c1` registered a logD of 3.03.

As to `O=C(NCC1CCCCN1)c1cc(OCC(F)(F)F)ccc1OCC(F)(F)F` (stereo unspecified) [FLECAINIDE], the logD worked out at 0.97.

Take `O=[N+]([O-])c1ccc(/C=N/O)o1` [NIFUROXIME]: the logD turned out to be 1.28.

In turn, `C[C@]12CC[C@H]3[C@@H](CCC4=CC(=O)CC[C@@]43C)[C@@H]1CC[C@@H]2O` [TESTOSTERONE] gave a logD of 3.29.

The compound `COc1ccc2[nH]c([S+]([O-])Cc3ncc(C)c(OC)c3C)nc2c1` (stereo unspecified) [OMEPRAZOLE] came in with a log distribution coefficient (logD) of 2.3.

`CSc1ccc2c(c1)N(CCC1CCCCN1C)c1ccccc1S2` (stereo unspecified) [THIORIDAZINE] yielded a logD of 3.34.

In turn, `CCCCNc1ccc(C(=O)OCCN(C)C)cc1` [TETRACAINE] registered a logD of 2.29.

In turn, `Nc1nc(N)c2nc(-c3ccccc3)c(N)nc2n1` returned a logD of 1.21.

`Oc1ncnc2[nH]ncc12` [ALLOPURINOL]: the logD was -0.44.

With `CNC(=C[N+](=O)[O-])NCCSCc1ccc(CN(C)C)o1` [RANITIDINE], the logD is -0.29.

`CC(C)N(CCC(C(N)=O)(c1ccccc1)c1ccccn1)C(C)C` (stereo unspecified) [DISOPYRAMIDE]: the logD is -0.66.

On to `NC(=O)N1c2ccccc2C=Cc2ccccc21` [CARBAMAZEPINE], for which the logD turned out to be 2.19.

Take `CCOC(=O)C1=C(COCCN)NC(C)=C(C(=O)OC)C1c1ccccc1Cl` (stereo unspecified) [AMLODIPINE]: the logD is 1.66.

With `CN(C)CCC(c1ccc(Cl)cc1)c1ccccn1` (stereo unspecified) [CHLORPHENIRAMINE], the pH-dependent lipophilicity (logD) came to 1.41.

`COC(=O)[C@H]1[C@@H](OC(=O)c2ccccc2)C[C@@H]2CC[C@H]1N2C` [COCAINE]: the pH-dependent lipophilicity (logD) was found to be 1.05.

Take `COC1=CC(=O)C[C@@H](C)[C@]12Oc1c(Cl)c(OC)cc(OC)c1C2=O` [GRISEOFULVIN]: the pH-dependent lipophilicity (logD) is 2.18.

`O=C1CN=C(c2ccccn2)c2cc(Br)ccc2N1` [BROMAZEPAM] displayed a logD of 1.65.

Compound `Oc1cc(Cl)cc(Cl)c1` registered a logD of 3.68.

Compound `CS(=O)(=O)c1ccc([C@@H](O)[C@@H](CO)NC(=O)C(Cl)Cl)cc1` [THIAMPHENICOL] gave a pH-dependent lipophilicity (logD) of -0.27.

For `COc1ccc2c3c1O[C@H]1[C@@H](O)C=C[C@H]4[C@@H](C2)N(C)CC[C@@]341` [CODEINE], the log distribution coefficient (logD) turned out to be 0.23.

In turn, `CSc1ncnc2c1ncn2[C@@H]1O[C@H](CO)[C@@H](O)[C@H]1O` gave a logD of 0.09.

`CC/C(=C(/CC)c1ccc(O)cc1)c1ccc(O)cc1` [DIETHYLSTILBESTROL]: the logD came out at 5.07.

For the compound `CN1CCC[C@H]1c1cccnc1` [NICOTINE], the pH-dependent lipophilicity (logD) was 0.4.

For `CNS(=O)(=O)Cc1ccc2[nH]cc(CCN(C)C)c2c1`, the logD is -1.

Consider `CN1CCN(CC(=O)N2c3ccccc3C(=O)Nc3cccnc32)CC1` [PIRENZEPINE], for which the logD was -0.61.

Turning to `CC(C)(C)NCC(O)c1cc(O)cc(O)c1` (stereo unspecified), the logD was -1.35.

With `c1ccc(-c2ccc(C(c3ccccc3)n3ccnc3)cc2)cc1` (stereo unspecified) [BIFONAZOLE], the logD came out at 4.77.

As to `C=CCc1ccccc1OCC(O)CNC(C)C` (stereo unspecified) [ALPRENOLOL], the logD turned out to be 0.97.

With `NC(=O)N/N=C/c1ccc([N+](=O)[O-])o1` [NITROFURAZONE], the log distribution coefficient (logD) worked out at 0.23.

As for `c1ccc2ncccc2c1` [QUINOLINE], the pH-dependent lipophilicity (logD) amounted to 2.03.

The compound `CCN(CC)CCNC(=O)c1cc(S(C)(=O)=O)ccc1OC` [TIAPRIDE] came in with a log distribution coefficient (logD) of -0.09.
